For one data set, the system named is ICR mice. Put plainly: Mouse swimming depression test. The class given is in vivo. The following applies: for non-movement time (%) Mean ± SEM: positive control, 10 mg/kg, intraperitoneal, 0.5 hours before test. As to the method:
Experiment objectives: to observe the effect of the test compound on the depressive status of mice
Experimental animals: ICR mice, 20-28 g, both male and female
Experimental equipment: plexiglass tube: cylindrical, 25 cm high, 15 cm inner diameter
Sample treatment: The test compounds were ground with 1% CMC (sodium carboxymethyl cellulose) to prepare a homogeneous solution. In vivo dose was 5 mg/kg, 10 mg/kg and 20 mg/kg, the compound was orally administrated at 0.1 ml/10 g volume/body weight. Positive control drugs (amitriptyline and fluoxetine) were dissolved with 0.9% saline, in vivo dose was 10 mg/kg, intraperitoneal injected at 0.1 ml/10 g volume/body weight. (Note: mice were given the compound after fasted for 8 hours without water-fasted.)
Experimental principle: The mouse is placed in a limited space which can not escape to swim, thus inducing animals to non-movement state which reflects the animal's desperate behavior.
Experimental Methods: mice were grouped randomly, 15 minutes swimming depression was modeled at the first day, and equivalent mice were selected. The second day of the test, 1 hour after the animals were orally administered the compound (0.5 hours after intraperitoneal injection) and then the animals were put in water to record the non-movement time in the later 4 min of 6 min.

The target in another data set is hERG potassium channel (Homo sapiens (Human), UniProt Q12809). In words: hERG potassium channel toxicity assay (hERG patch clamp). The class given is cell-based. The following applies: for IC50: hERG patch clamp; for inhibition at 40 µM: at maximum concentration 40 μM. As to the method:
Experimental method: hERG patch clamp detection method
Experimental procedure: Compound preparation: the stock solution of a compound was diluted with extracellular fluid, 2 μL of the compound stock solution was added to 998 μL extracellular fluid, and then serially diluted 5 times in an extracellular fluid containing 0.2% DMSO to obtain the final concentration to be tested.
Background: Block of hERG is tested as a sign of cardiac risk.

The target of a further data set is mGluR2 (Homo sapiens (Human), UniProt Q14416). Put plainly: In vitro activity test for mGluR2 (HDB Fluo-8 calcium fluorescence, HEK/mGluR2 cell line). The class given is cell-based. The source says:
Experimental materials: HEK/mGluR2 cell line (human […] transfected HEK cell line), DMEM (FBS) medium, positive control LY487379 (purchased from sigma; CAS: to 352317-17-1)
Experimental instrument: FLIPR Tetra real-time fluorescence imaging analysis system
Experimental method: HDB Fluo-8 calcium fluorescence detection method
Experimental principle: HDB Fluo-8 calcium ion fluorescence detection method is a fast, simple and reliable fluorescence detection method of intracellular calcium concentration changes. The Fluo 8-AM fluorescent dye is an acetyl methyl ester derivative of Fluo 8 which can easily penetrate into the cell membrane by culture. The fluorescent dye in the cell will be hydrolyzed by intracellular esterase, the resulting Fluo 8 as a polar molecule, cannot easily pass through the lipid bimolecular membrane, and will be retained in the cell, and combine with calcium (Ca^2+) to produce fluoresces.
Cells expressing GPCR receptor protein (mGluR2) were first calibrated with a calcium ion sensitive fluorescent probe and then stimulated with the compound. After stimulation, the receptor activates the calcium ion mobilization, and the fluorescent probe captures the calcium ion to induce the fluorescence signal. The signal can be read by a fluoroscopy plate. The fluorescent plate reader contains a sample addition for compound addition, thus enabling the change of the fluorescence value of the compound be read in real time.

The subject of another data set is C57BL/6 mice. Put plainly: Mouse open field experiment. Conditions: mouse, in vivo. Type of data set: in vivo. As to the method: Experiment objectives: to observe the anti-anxiety effect of the test compound on the mice by open field experiment.
Experimental animals: male C57BL/6 mice, 10 weeks old, purchased from Beijing Huafukang Biotechnology Co., Ltd.
Animal rearing: The temperature in the animal room was maintained at 20-25° C., the humidity was maintained at 40-70%, and the photoperiod was 12 hours light and 12 hours dark. During feeding, the mice were housed in standard mouse cages, with colored labels on each cage clearly indicating the item number, and the basic information such as the responsible person, group, animal number and animal gender. All animals were given free access to pure water and standard certified rodent feed. Before the start of the experiment, the experimental animals were adapted to the feeding environment for at least one week.
The compound to be tested, intraperitoneally administered, 30 mg/kg.
Experimental principle: Based on the instincts of rodents tending to avoid light and fear of exploring open fields. When the experimental animals were first placed in the open field, the central area was a potential threat to the animals, while the peripheral area was relatively safe, and rats and mice were more likely to move along the perimeter of the field. Therefore, if the animal is of high anxiety level, it tends to stay in the peripheral area. Conversely, the number and time of exploration in the central area will increase.
Experimental grouping and administration: Experimental animals were randomly divided into 5 groups as follows:
During the 30-minute test period, the total distance traveled by the experimental animals, the central area dwell time, and the percentage of the central area travel distance will be detected and recorded.

[1] abbreviates: human, hERG, read-out: Inhibition rate (%).

We go through 22 compounds from US10800776B2, “Fluorine-containing triazolopyridine, and manufacturing method, pharmaceutical composition, and application thereof” (SHANGHAI INSTITUTE OF MATERIA MEDICA, CHINESE ACADEMY OF …, priority 2016, dated 2020).

For orientation: inhibition means the percentage by which the read-out fell short of the control. The IC50 is the concentration that gives 50% inhibition. What is called EC50 is the concentration at which the effect is half-maximal.

Structures are written as SMILES.

Sequence of hERG potassium channel (Q12809 whole entry): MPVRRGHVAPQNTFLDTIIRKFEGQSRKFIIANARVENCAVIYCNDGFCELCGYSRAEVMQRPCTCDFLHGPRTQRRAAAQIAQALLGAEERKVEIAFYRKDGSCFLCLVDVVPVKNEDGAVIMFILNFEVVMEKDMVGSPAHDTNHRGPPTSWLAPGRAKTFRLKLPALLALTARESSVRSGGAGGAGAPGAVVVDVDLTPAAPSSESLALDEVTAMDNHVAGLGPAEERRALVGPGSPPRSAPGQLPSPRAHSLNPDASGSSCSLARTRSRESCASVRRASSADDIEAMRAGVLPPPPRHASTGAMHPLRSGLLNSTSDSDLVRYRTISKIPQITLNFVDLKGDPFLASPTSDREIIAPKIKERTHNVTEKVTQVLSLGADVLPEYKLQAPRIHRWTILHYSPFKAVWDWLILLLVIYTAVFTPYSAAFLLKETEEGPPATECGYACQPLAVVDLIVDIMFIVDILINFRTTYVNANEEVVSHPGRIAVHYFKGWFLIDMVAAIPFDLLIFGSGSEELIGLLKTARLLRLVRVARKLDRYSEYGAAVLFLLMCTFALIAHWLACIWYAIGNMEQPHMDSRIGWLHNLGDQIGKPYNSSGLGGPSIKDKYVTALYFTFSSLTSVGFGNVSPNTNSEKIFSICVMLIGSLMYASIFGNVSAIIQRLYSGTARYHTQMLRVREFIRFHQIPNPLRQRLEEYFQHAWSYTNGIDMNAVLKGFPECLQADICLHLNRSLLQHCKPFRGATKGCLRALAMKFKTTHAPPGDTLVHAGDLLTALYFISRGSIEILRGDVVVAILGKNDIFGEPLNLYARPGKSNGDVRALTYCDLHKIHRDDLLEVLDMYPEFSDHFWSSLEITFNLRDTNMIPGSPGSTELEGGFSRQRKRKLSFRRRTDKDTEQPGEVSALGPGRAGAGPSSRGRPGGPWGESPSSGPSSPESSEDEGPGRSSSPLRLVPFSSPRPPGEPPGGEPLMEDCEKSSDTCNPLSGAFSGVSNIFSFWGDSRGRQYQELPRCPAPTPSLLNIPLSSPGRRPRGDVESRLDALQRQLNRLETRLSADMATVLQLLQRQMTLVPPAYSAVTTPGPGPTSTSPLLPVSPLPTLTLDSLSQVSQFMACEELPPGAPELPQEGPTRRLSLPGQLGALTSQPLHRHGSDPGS
Sequence of mGluR2 (Q14416 19-872): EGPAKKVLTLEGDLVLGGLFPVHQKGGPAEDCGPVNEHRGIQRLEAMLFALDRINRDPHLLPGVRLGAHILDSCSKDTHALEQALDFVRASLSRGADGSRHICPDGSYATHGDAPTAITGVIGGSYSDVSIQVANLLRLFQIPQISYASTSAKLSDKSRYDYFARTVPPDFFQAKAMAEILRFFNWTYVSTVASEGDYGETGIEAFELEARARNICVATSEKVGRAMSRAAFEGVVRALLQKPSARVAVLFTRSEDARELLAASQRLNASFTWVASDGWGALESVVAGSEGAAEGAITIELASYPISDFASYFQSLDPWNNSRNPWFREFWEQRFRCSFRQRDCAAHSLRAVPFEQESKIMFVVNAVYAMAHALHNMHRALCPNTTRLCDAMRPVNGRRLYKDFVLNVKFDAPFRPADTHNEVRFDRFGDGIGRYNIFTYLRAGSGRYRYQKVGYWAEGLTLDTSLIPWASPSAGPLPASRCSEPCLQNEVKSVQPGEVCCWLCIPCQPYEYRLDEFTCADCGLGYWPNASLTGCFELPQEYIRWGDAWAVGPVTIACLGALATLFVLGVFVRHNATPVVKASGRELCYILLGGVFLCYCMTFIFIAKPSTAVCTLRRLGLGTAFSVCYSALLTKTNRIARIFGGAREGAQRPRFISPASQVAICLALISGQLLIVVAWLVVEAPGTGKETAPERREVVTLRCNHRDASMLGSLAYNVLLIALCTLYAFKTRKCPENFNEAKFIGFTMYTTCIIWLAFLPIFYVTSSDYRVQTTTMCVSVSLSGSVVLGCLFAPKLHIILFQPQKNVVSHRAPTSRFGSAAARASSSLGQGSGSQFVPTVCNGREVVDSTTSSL

Regarding `CN(C)CCC=C1c2ccccc2CCc2ccccc21` [Amitriptyline, reference compound], the “"no movement time" of swimming in mice (in words)” value in the data set on ICR mice (mouse, in vivo) is on record as “significantly improved”. Besides, in the data set on ICR mice, the “non-movement time (%) Mean ± SEM” value was 5.32 ± 2.08 %.

As to `COc1cc(N)c(Cl)cc1C(=O)NC1CCN(CCCOc2ccc(F)cc2)CC1OC` (stereo not drawn) [Cisapride, reference compound], the inhibition at 3 µM on hERG potassium channel (human, hERG, positive compound, maximum test concentration 3 μM, read-out: Inhibition rate (%)) stood at 96.6%.

For `Cc1cccc(-c2ccn3c(CC4CC4(F)F)nnc3c2)c1` (stereo not drawn) [Compound 10, 3-((2,2-difluorocyclopropyl)methyl)-7-(m-tolyl)-[1,2,4]triazole [4,3-a]pyridine], the IC50 at hERG potassium channel is over 40000 nM. Moreover, the inhibition at 40 µM at hERG potassium channel (setting [1]) turned out to be 38.1%. Moreover, the EC50 on mGluR2 was 143 nM.

Turning to `Fc1cccc(-c2ccn3c(CC4CC4(F)F)nnc3c2)c1` (stereo not drawn) [Compound 11, 3-((2,2-Difluorocyclopropyl)methyl)-7-(3-fluorophenyl)-[1,2,4]triazole [4,3-a]pyridine], the IC50 against hERG potassium channel is over 40000 nM. In addition, the inhibition at 40 µM on hERG potassium channel (setting [1]) came to 45.9%. The EC50 at mGluR2 came out at 704 nM.

`Fc1ccc(-c2ccn3c(CC4CC4(F)F)nnc3c2)cc1` (stereo not drawn) [Compound 13, 3-((2,2-difluorocyclopropyl)methyl)-7-(4-fluorophenyl)-[1,2,4]triazole [4,3-a]pyridine] returned an IC50 on hERG potassium channel of 31900 nM. Moreover, the inhibition at 40 µM at hERG potassium channel (setting [1]) worked out at 52.8%. Also, the EC50 at mGluR2 was found to be 381 nM.

The compound `CC(C)(O)c1ccc(-c2ccn3c(CC4CC4(F)F)nnc3c2)cc1` (stereo not drawn) [Compound 21, 2-(4-(3-((2,2-difluorocyclopropyl)methyl)-[1,2,4]triazole[4,3-a]pyridin-7-yl)phenyl)propan-2-ol] displayed an IC50 against hERG potassium channel of 31900 nM. Besides, the inhibition at 40 µM on hERG potassium channel (setting [1]) worked out at 52.8%. Moreover, the EC50 at mGluR2 amounted to 226 nM.

`COc1ccc(-c2ccn3c(CC4CC4(F)F)nnc3c2)cc1F` (stereo not drawn) [Compound 23, 3-((2,2-difluorocyclopropyl)methyl)-7-(3-fluoro-4-methoxyphenyl)-[1,2,4] triazole[4,3-a]pyridine]: at hERG potassium channel, the IC50 is over 40000 nM. Also, the inhibition at 40 µM at hERG potassium channel (setting [1]) stood at 46%. For the same compound, the EC50 at mGluR2 amounted to 849 nM.

At hERG potassium channel, `Cc1cc(F)ccc1-c1ccn2c(CC3CC3(F)F)nnc2c1` (stereo not drawn) [Compound 26, 3-((2,2-difluorocyclopropyl)methyl)-7-(4-fluoro-2-methylphenyl)-[1,2,4] triazole[4,3-a]pyridine] registered an IC50 of over 40000 nM. In addition, the inhibition at 40 µM on hERG potassium channel (setting [1]) worked out at 49.4%. Further, the EC50 at mGluR2 was 781 nM.

Take `Cc1cc(-c2ccn3c(CC4CC4(F)F)nnc3c2)ccc1F` (stereo not drawn) [Compound 27, 3-((2,2-difluorocyclopropyl)methyl)-7-(4-fluoro-3-methylphenyl)-[1,2,4] triazole[4,3-a]pyridine]: the IC50 at hERG potassium channel was over 40000 nM. For the same compound, the inhibition at 40 µM on hERG potassium channel (setting [1]) was determined as 49.9%. The EC50 at mGluR2 came to 868 nM.

`COC(=O)c1ccc(-c2ccn3c(CC4CC4(F)F)nnc3c2)c(F)c1` (stereo not drawn) [Compound 29, Methyl 4-(3-((2,2-difluorocyclopropyl)methyl)-[1,2,4]triazolo[4,3-a]pyridin-7-yl)-3-fluorobenzonate] registered an IC50 against hERG potassium channel of 17300 nM. Further, the inhibition at 40 µM on hERG potassium channel (setting [1]) worked out at 62.4%. Also, at mGluR2, the EC50 was found to be 541 nM.

Turning to `FC1(F)CC1Cc1nnc2cc(-c3ccc4c(c3)CCO4)ccn12` (stereo not drawn) [Compound 31, 3-((2,2-difluorocyclopropyl)methyl)-7-(2,3-benzodihydrofuran-5-yl)-[1,2,4]triazole[4,3-a]pyridine], at hERG potassium channel, the IC50 is over 40000 nM. The inhibition at 40 µM at hERG potassium channel (setting [1]) was determined as 48.1%. The EC50 at mGluR2 was found to be 368 nM.

Compound `FC1(F)CC1Cc1nnc2cc(-c3cccc4c3OCC4)ccn12` (stereo not drawn) [Compound 32, 3-((2,2-difluorocyclopropyl)methyl)-7-(2,3-benzodihydrofuran-7-yl)-[1,2,4]triazole[4,3-a]pyridine] gave an IC50 at hERG potassium channel of over 40000 nM. In addition, on hERG potassium channel (setting [1]), the inhibition at 40 µM amounted to 51%. Besides, on mGluR2, the EC50 stood at 825 nM.

Compound `FC1(F)CC1Cc1nnc2cc(-c3cccc4cccnc34)ccn12` (stereo not drawn) [Compound 34, 8-(3-((2,2-difluorocyclopropyl)methyl)-[1,2,4]triazole[4,3-a]pyridin-7-yl)quinoline] gave an IC50 on hERG potassium channel of over 40000 nM. At hERG potassium channel (setting [1]), the inhibition at 40 µM came to 36%. Further, the EC50 at mGluR2 was determined as 612 nM.

The compound `Cc1cccc(-c2ccn3c(CC4CC4(F)F)nnc3c2Cl)c1` (stereo not drawn) [Compound 36, 8-chloro-3-((2,2-difluorocyclopropyl)methyl)-7-(m-tolyl)-[1,2,4] triazole[4,3-a]pyridine] showed an IC50 against hERG potassium channel of over 40000 nM. On hERG potassium channel (setting [1]), the inhibition at 40 µM came to 48.9%. Further, the EC50 at mGluR2 is 130 nM.

At hERG potassium channel, `Fc1cccc(-c2ccn3c(CC4CC4(F)F)nnc3c2Cl)c1` (stereo not drawn) [Compound 37, 8-chloro-3-((2,2-difluorocyclopropyl)methyl)-7-(3-fluorophenyl)-[1,2,4] triazole[4,3-a]pyridine] had an IC50 of 15000 nM. The inhibition at 40 µM at hERG potassium channel (setting [1]) came to 57%. Also, the EC50 on mGluR2 came out at 190 nM.

The compound `Cc1cc(F)ccc1-c1ccn2c(CC3CC3(F)F)nnc2c1Cl` (stereo not drawn) [Compound 41, 8-chloro-3-((2,2-difluorocyclopropyl)methyl)-7-(4-fluoro-2-methylphenyl)-[1,2,4]triazole[4,3-a]pyridine] registered a half-inhibitory concentration (IC50) on hERG potassium channel of 11200 nM. Also, at hERG potassium channel (setting [1]), the inhibition at 40 µM came out at 80.1%. Further, on mGluR2, the EC50 stood at 856 nM.

As for `COc1ccc(-c2ccn3c(CC4CC4(F)F)nnc3c2Cl)cc1F` (stereo not drawn) [Compound 44, 8-chloro-3-((2,2-difluorocyclopropyl)methyl)-7-(3-fluoro-4-methoxyphenyl)-[1,2,4]triazole[4,3-a]pyridine], the IC50 against hERG potassium channel was 16100 nM. Also, the inhibition at 40 µM on hERG potassium channel (setting [1]) came out at 64.5%. Moreover, the EC50 at mGluR2 was determined as 118 nM.

`COC(=O)c1ccc(-c2ccn3c(CC4CC4(F)F)nnc3c2Cl)c(Cl)c1` (stereo not drawn) [Compound 46, Methyl 3-Chloro-4-(8-chloro-3-((2,2-difluorocyclopropyl)methyl)-[1,2,4]triazole[4,3-a]pyridine-7-yl)benzoate]: inhibition on hERG potassium channel was half-maximal at 10800 nM (IC50). The inhibition at 40 µM at hERG potassium channel (setting [1]) was 82.5%. In addition, on mGluR2, the EC50 stood at 230 nM.

The compound `FC1(F)CC1Cc1nnc2c(Cl)c(-c3ccc4c(c3)CCO4)ccn12` (stereo not drawn) [Compound 47, 8-chloro-3-((2,2-difluorocyclopropyl)methyl)-7-(2,3-benzodihydrofuran-5-yl)-[1,2,4]triazole[4,3-a]pyridine] had an IC50 at hERG potassium channel of 4880 nM. The inhibition at 40 µM at hERG potassium channel (setting [1]) came out at 96.4%. For the same compound, the EC50 on mGluR2 is 215 nM.

Regarding `CN1C(=O)CN=C(c2ccccc2)c2cc(Cl)ccc21` [Diazepam, reference compound], the “anti-anxiety effect in the open field experiment” value with C57BL/6 mice is “very significant anti-anxiety effect”.

On to `CNCCC(Oc1ccc(C(F)(F)F)cc1)c1ccccc1` (stereo not drawn) [Fluoxetine, reference compound], for which the “non-movement time (%) Mean ± SEM” value in the data set with ICR mice is reported as 33.98 ± 9.84 %.

In the case of `COc1ccccc1Oc1ccc(N(Cc2cccnc2)S(=O)(=O)CC(F)(F)F)cc1` [LY487379, reference compound], the EC50 at mGluR2 stood at 230 nM.
